Source: patent US20010053776A1, “Tricyclic pyridin-2-one analogue as a GABA receptor ligand” (priority 2000, published 2001)

Cc1csc(-c2cc(-c3ccncc3)c3n(c2=O)CCCc2ccncc2-3)n1 [Example 1, 9-(4-Methylthiazol-2-yl)-11-(pyridin-4-yl)-6,7-dihydro-5H-2,7a-diazadibenzo[a,c]cyclohepten-8-one]
melting point: 300 to 302 °C
